Experiment: in vivo
Settings: rat, serum, po, 25 mg/kg
Protocol: Dicumarol containing microspheres were produced as described above in Example 2, subsection 1. Equal doses of dicumarol, spray dried dicumarol and polyanhydride (FA:SA) 20:80 encapsulated dicumarol (25 mg drug/kg body weight) suspended in 1.5 ml maple syrup were fed to catheterized rats (250-350 g). Blood samples were taken at regular intervals and serum was assayed for dicumarol concentrations using a UV spectrophotometric method.

AUC: 232 ± 19.2 µg·h/mL
Cmax: 17900 ± 1220 ng/mL
Tmax: 9.42 ± 1.36 h
half-life: 16.2 ± 0.87 h
SMILES: O=c1oc2ccccc2c(O)c1Cc1c(O)c2ccccc2oc1=O [SPRAY DICUMAROL CONTROL, dicumarol]

— patent publication US20040070093A1, “Process for preparing microparticles through phase inversion phenomena” (Brown University Research Foundation, priority 1995, published 2004)
